Results as given in PMC4908180 (American Journal of Human Genetics, 2016).

Target: 6His-tagged human FADS isoform 2 (FADS2), WT (Homo sapiens, UniProt Q8NFF5)
Experiment: UV/Vis spectra
Assay type: binding
Conditions: reaction product, non-covalent; bound flavin as purified

Chain of 6His-tagged human FADS isoform 2 (FADS2), WT (Q8NFF5 98-587): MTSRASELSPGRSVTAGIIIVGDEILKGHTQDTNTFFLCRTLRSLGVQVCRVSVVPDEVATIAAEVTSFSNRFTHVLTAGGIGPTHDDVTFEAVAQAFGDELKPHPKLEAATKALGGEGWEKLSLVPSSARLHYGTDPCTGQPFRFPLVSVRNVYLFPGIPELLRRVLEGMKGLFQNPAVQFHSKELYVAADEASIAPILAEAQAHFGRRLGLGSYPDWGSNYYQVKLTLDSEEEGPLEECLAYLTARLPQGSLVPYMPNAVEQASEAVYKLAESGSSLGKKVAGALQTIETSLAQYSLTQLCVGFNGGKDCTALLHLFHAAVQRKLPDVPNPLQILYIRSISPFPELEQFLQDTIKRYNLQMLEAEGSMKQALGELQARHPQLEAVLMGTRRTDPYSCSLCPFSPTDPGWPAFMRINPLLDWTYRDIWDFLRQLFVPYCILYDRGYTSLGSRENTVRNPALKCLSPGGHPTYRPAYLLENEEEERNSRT

**Q.** With `Cc1cc2nc3c(=O)[nH]c(=O)nc-3n(C[C@H](O)[C@H](O)[C@H](O)COP(=O)(O)OP(=O)(O)OC[C@H]3O[C@@H](n4cnc5c(N)ncnc54)[C@H](O)[C@@H]3O)c2cc1C` [FAD] as the compound, how does the “UV/Vis spectra (FAD saturation of purified protein)” value read?
**A.** Spectrophotometric analysis of the purified WT, p.Ser495del, and p.Arg530Cys FADS2 proteins
